Experiment [1] has as its target T1, Receptor-type tyrosine-protein kinase FLT3 (Homo sapiens, UniProt P36888).
T1 sequence (P36888 whole entry): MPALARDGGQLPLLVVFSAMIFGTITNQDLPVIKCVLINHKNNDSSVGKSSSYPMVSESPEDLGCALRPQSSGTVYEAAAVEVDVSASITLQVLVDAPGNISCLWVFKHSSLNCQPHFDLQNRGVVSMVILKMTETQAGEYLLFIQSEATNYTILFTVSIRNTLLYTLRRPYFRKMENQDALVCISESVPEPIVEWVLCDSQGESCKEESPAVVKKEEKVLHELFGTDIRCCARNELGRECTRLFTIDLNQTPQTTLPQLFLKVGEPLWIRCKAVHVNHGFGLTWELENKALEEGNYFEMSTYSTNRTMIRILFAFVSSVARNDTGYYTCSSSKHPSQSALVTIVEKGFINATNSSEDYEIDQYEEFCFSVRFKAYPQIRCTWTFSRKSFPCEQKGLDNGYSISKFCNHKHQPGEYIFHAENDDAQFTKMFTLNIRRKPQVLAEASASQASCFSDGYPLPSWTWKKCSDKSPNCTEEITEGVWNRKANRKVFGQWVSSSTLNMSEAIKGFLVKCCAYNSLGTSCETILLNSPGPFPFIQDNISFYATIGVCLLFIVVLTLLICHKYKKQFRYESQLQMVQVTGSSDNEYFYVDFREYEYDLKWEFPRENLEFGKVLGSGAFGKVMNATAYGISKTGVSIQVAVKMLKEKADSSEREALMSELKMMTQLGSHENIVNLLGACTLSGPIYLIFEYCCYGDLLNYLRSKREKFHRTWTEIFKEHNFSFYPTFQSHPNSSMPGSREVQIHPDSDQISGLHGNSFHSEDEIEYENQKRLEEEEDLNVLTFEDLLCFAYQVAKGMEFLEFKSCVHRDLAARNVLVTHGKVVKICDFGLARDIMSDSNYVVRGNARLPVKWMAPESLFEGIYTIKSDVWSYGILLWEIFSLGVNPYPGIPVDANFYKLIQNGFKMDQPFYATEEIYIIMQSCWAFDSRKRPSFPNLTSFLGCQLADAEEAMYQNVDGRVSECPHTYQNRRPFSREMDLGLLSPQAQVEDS
Briefly: Inhibition Assay: Kinase assays were performed at Reaction Biology Corp., Malvern, Pa., USA, using the following general procedure:1) Prepare indicated substrate in freshly prepared Base Reaction Buffer (20 mM Hepes pH 7.5, 10 mM MgCl2, 1 mM EGTA, 0.02% Brij35, 0.02 mg/ml BSA, 0.1 mM Na3VO4, 2 mM DTT, 1% DMSO).2) Deliver cofactors (1.5 mM CaCl2, 16 ug/mL Calmodulin, 2 mM MnCl2) to the substrate ….

In the next experiment the target is Aurora kinase B (Homo sapiens, UniProt Q96GD4). Briefly: Inhibition Assay: Kinase assays were performed at Reaction Biology Corp., Malvern, Pa., USA, using the following general procedure:1) Prepare indicated substrate in freshly prepared Base Reaction Buffer (20 mM Hepes pH 7.5, 10 mM MgCl2, 1 mM EGTA, 0.02% Brij35, 0.02 mg/ml BSA, 0.1 mM Na3VO4, 2 mM DTT, 1% DMSO).2) Deliver cofactors (1.5 mM CaCl2, 16 ug/mL Calmodulin, 2 mM MnCl2) to the substrate solution above.3) Deliver indicated kinase into the substrate solution and gently mix4) Deliver varying concentrations of test compound in DMSO into the kinase reaction mixture.5) Deliver 33P-ATP (specific activity 0.01 uCi/uL final) into the reaction mixture to initiate the reaction.6) Incubate kinase reaction for 120 min at room temperature.7) Reactions are spotted onto P81 ion exchange filter paper (Whatman #3698-915)8) Unbound phosphate is removed by washing filters extensively in 0.75% phosphoric acid.9) 33P signal was determined using Typhoon phosphorimagers (GE Healthcare).

pIC50: −log10 of the molar value.

Sequence of Aurora kinase B (Q96GD4 whole entry): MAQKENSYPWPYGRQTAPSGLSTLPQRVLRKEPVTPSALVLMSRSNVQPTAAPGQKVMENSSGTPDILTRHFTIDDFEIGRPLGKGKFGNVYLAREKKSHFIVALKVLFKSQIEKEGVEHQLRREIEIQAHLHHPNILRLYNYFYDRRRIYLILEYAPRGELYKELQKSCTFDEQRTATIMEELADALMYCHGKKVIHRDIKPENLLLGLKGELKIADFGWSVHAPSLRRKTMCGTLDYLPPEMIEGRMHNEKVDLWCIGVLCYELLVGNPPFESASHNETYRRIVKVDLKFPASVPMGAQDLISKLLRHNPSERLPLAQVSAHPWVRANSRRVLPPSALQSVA

Broadly, the pIC50 is the negative decadic logarithm of the IC50, by convention in mol/L. Consider `CCc1ccc(-c2nc(C(N)=O)c(-c3ccc(N4CCNC(C)(C)C4)cc3)o2)c2cc[nH]c12`, for which the figures for the pIC50 (in experiment [1]; on Aurora kinase B) were 9.17 and 7.92, respectively.

The values are drawn from ChEMBL document CHEMBL3886247, “Aurora and FLT3 kinases modulators” (2015).
